Measured values as given in ChEMBL document CHEMBL3046267, “Induction of Phytoalexin Formation in Suspension-cultured Rice Cells byN-Acetyl-chitooligosaccharides” (1993).
Activity calls are given as the source filed them. The calls are words filed in the database; no cut-off is given here.

What was measured:
Assay type in all cases: functional
Pyricularia oryzae = assay: Antifungal activity against Magnaporthe oryzae assessed as inhibition of germ tube growth at 1 to 5 ug/ml relative to control
Oryza sativa [1] = assay: Induction of phytoalexin formation in suspension-cultured Oryza sativa (rice) cells assessed as accumulation of momilactone A in culture medium at 0.7 x 10^-9 to 0.7 x 10^-6 M after 72 hr by GC/GC-MS analysis
Oryza sativa [2] = assay: Induction of phytoalexin formation in suspension-cultured Oryza sativa (rice) cells assessed as accumulation of intracellular momilactone A at 0.7 x 10^-9 to 0.7 x 10^-6 M after 24 hr by GC/GC-MS analysis
Oryza sativa [3] = assay: Induction of phytoalexin formation in suspension-cultured Oryza sativa (rice) cells assessed as accumulation of intracellular momilactone B at 10 ug/ml after 48 hr by GC/GC-MS analysis
Oryza sativa [4] = assay: Induction of phytoalexin formation in suspension-cultured Oryza sativa (rice) cells assessed as accumulation of momilactone A in culture medium at 0.7 x 10^-9 to 0.7 x 10^-6 M after 48 hr by GC/GC-MS analysis
Oryza sativa [5] = assay: Induction of phytoalexin formation in suspension-cultured Oryza sativa (rice) cells assessed as accumulation of intracellular momilactone A at 0.7 x 10^-9 to 0.7 x 10^-6 M after 48 hr by GC/GC-MS analysis
Oryza sativa [6] = assay: Induction of phytoalexin formation in suspension-cultured Oryza sativa (rice) cells assessed as accumulation of intracellular momilactone A at 0.7 x 10^-9 to 0.7 x 10^-6 M after 72 hr by GC/GC-MS analysis
Oryza sativa [7] = assay: Induction of phytoalexin formation in suspension-cultured Oryza sativa (rice) cells assessed as accumulation of momilactone A in culture medium at 0.7 x 10^-9 to 0.7 x 10^-6 M after 24 hr by GC/GC-MS analysis

Question: With `C=C[C@]1(C)CC[C@@H]2C(=C[C@H]3OC(=O)[C@]4(C)[C@H]3[C@]23CC[C@@]4(O)OC3)C1` [MOMILACTONE B] as the compound, how does the “growth inhibition (GI)” value (Pyricularia oryzae) read?
Answer: Its value is 50%.

Question: For `C=C[C@]1(C)CC[C@@H]2C(=C[C@H]3OC(=O)[C@@]4(C)C(=O)CC[C@@]2(C)[C@@H]34)C1` [MOMILACTONE A], which “growth inhibition (GI)” value (Pyricularia oryzae) is on record?
Answer: Its value is 50%.

Question: Which results are given for `CC(=O)N[C@H]1[C@H](O[C@@H]([C@H](O)[C@H](C=O)NC(C)=O)[C@H](O)CO)O[C@H](CO)[C@@H](O[C@@H]2O[C@H](CO)[C@@H](O[C@@H]3O[C@H](CO)[C@@H](O[C@@H]4O[C@H](CO)[C@@H](O[C@@H]5O[C@H](CO)[C@@H](O[C@@H]6O[C@H](CO)[C@@H](O)[C@H](O)[C@H]6NC(C)=O)[C@H](O)[C@H]5NC(C)=O)[C@H](O)[C@H]4NC(C)=O)[C@H](O)[C@H]3NC(C)=O)[C@H](O)[C@H]2NC(C)=O)[C@@H]1O` [N-ACETYLCHITOHEPTAOSE]?
Answer: Activity (Oryza sativa [1]): 149 µg/g; Activity (Oryza sativa [2]): 16 µg/g; Activity (Oryza sativa [3]): Active; Activity (Oryza sativa [4]): 161 µg/g; Activity (Oryza sativa [5]): 41 µg/g; Activity (Oryza sativa [6]): 56 µg/g; Activity (Oryza sativa [7]): 24 µg/g
